We go through three molecules from patent US5972901A, “Serpin enzyme complex receptor--mediated gene transfer” (Case Western Reserve University, priority 1996, dated 1999).

Series [1] has as its system total serum cholesterol.
Protocol: Six adult male Watanabe rabbits (2.8-3.2 Kg of bodyweight) were used in these studies. […] In order to introduce the DNA complex into the animal, we perform a single injection of 3-10 ml of the DNA-complex solution (~400-900 mM NaCl) into the marginal ear vein of the rabbit. Approximately 1.5 ml of blood was drawn from the ear artery at 4 p.m. The determination of the concentration of serum cholesterol was performed in the Clinical Laboratory of University Hospitals of Cleveland from 300 μl of serum. At different time points following the introduction of the DNA complex, a rabbit was subjected to a liver biopsy.
The test system of series [2] is SEC receptor. The series can be described thus: 125I-C105Y cell surface SEC receptor binding, Scatchard analysis. Set-up: species or system human. As to conditions: for Kd: 4° C. The procedure:
Peptide C105Y was radio-iodinated by a modification of the chloramine T method [Hunter and Greenwood (1962) Nature 194:49] as follows. Briefly, approximately 50 μg of the C105Y peptide in 20 μl PBS was mixed with 20 μl chloramine T (120 mg/10 ml) and 1 mCi ^125 I (DuPont-New England Nuclear, Boston, Mass.). The reaction mixture was incubated for 30 seconds at room temperature and then 50 μl of sodium metabisulfite (36 mg/10 ml) was added. The labeled C105Y peptide was purified on a Sephadex G10 column (Bio-Rad) which had been blocked by application of 3 mg/ml BSA in PBS prior to the addition of the iodinated peptide. The specific radioactivity of ^125 I peptide C105Y ranged between 3,500 and 11,700 dpm/ng.
HuH7 cells and two populations of HepG2 cells were studied. Cells were plated in 24 well tissue culture plates, allowed to become confluent, then thoroughly washed with phosphate-buffered saline containing 1 mM CaCl2 and 2.5 mM MgCl2 (Ca^2+ /Mg^2+ PBS) and incubated at 4° C. for 2 h with ^125 I-labeled ligand (e.g., C105Y) at concentrations of 12.5 to 400 nM in the absence or presence of 200 fold excess unlabeled ligand and diluted in binding medium (DMEM containing 50 mM HEPES, 0.1 mg/ml cytochrome c, 0.01% Tween 80, 2 mg/ml bovine serum albumin). The cells were then rinsed in Ca^2+ Mg^2+ PBS, homogenized in 1 N NaOH, and cell-associated radioactivity determined. Non-specific binding was determined by incubating cells with a 200 fold molar excess of cold ligand. Specific binding was defined as the difference between total and non-specific binding. Binding parameters were determined by Scatchard analysis. Binding assays were performed on all three cell lines [HuH7, HepG2 (high), and HepG2 (low)] simultaneously with the same batch of iodinated C105Y peptide so that the proper comparisons could be made.
In FIG. 22, the specific binding (expressed as cpm/one million cells) is plotted against the concentration of iodinated C105Y ppeptide (nM). Traces are shown for the specific binding of ^125 I-C105Y to HuH7 cells (.smallcircle.), HepG2 (high) cells (.quadrature.) and HepG2 (low) cells (.diamond.). Specific binding was determined by subtracting […].

The test system of series [3] is SEC receptor. As to the kind of experiment: Binding of fluorescein labeled peptide to hepatoma cells (fluorescent cells). Format: cell-based, human. The procedure: HuH7, HepG2 (high) and HepG2 (low) cells were plated in six well plates and transfected as described above. Fluorescein labeling was carried out with fluorescein isothiocyanate, as described previously [Mann and Fish (1972) Methods of Enzymology 26:28-42]. Briefly, the C1315 peptide (145 μg) was incubated with 1 mg of fluorescein isothiocyanate for 1 hr at room temperature. Following incubation, 10 mg/ml glycine was added to destroy excess reagent, the pH was adjusted to 6.0 by the addition of 1N HCl and the labeled peptide was then purified on a Sephadex G10 column (Bio-Rad).
Two days following transfection, cells were washed with Ca^2+ /Mg^2+ PBS, incubated with 100 nM fluorescein labeled C1315 peptide and diluted in binding buffer (DMEM containing 50 mM Hepes, 0.1 mg/ml cytochrome c, 0.01% Tween 80, 2 mg/ml bovine serum albumin) at 4° C. Individual cells were imaged on a Zeiss axiovert 35 microscope at an excitation wavelength of 493.5 nm and a measurement wavelength of 530 nm. Digital images were captured by a cooled CCD camera model CH250 for 25 seconds (Photometrics, Ltd., Tucson, Ariz.) and quantified by a Nu 2000 camera controller board (Photometrics) with a Macintosh Quadra 900 configuration. Data was processed with Oncor image software (Oncor Imaging, Rockville, Md.).
Both HuH7 and HepG2 cell lines were transfected with the pCMV lac Z II plasmid coding for the β-galactosidase protein as a complex with the C1315 peptide carrier or using Lipofectin®, as described above; three days after transfection, the cells were harvested and β-galactosidaseactivity was determined. Cells staining blue represent cells expressing β-galactosidase; fluorescent cells represent cells which bound the fluoresceinated C105Y peptide. Cells which were counted as blue or fluorescent were intensely stained. The average % values represent the number of cells which were blue or fluorescent per 100 randomly selected cells. The results represent 6 independent experiments conducted. […]

The subject of series [4] is hepatoma cells. The series can be described thus: Cell death / viability during transfection of hepatoma cells. As to conditions: 10 fold molar excess.
Protocol: After addition of the complex and/or Lipofectin®, all cells were incubated at 37° C. for six hours. Cells were then rinsed with Ca^2+ /Mg^2+ PBS and fresh growth media added and incubated at 37° C. (with a change of media every 2 days) until the appropriate functional assay was performed. Competition experiments were conducted by transfecting HepG2 (high) cells with 1.11 pmol C1 315 carrier condensed DNA in the presence and absence of a 10 fold excess free C1315 peptide. All transfections were done in duplicate.

Regarding `CC[C@H](C)C(=O)O[C@H]1C[C@@H](C)C=C2C=C[C@H](C)[C@H](CC[C@@H]3C[C@@H](O)CC(=O)O3)[C@H]21` [lovastatin], in series [1] (rabbit #774, gene transfer followed by 10 mg per day for 10 weeks), the “cholesterol concentration relative to that prior to the first gene transfer” value was determined as 40%. Besides, the “further reduction in the levels of cholesterol” value in series [1] (rabbit #774 after gene transfer, 10 mg per day orally for 10 weeks) came out at 20%.
CSIPPEVKFNKPFVYLI [C105Y]: in series [2], the “binding by HuH7 cells relative to HepG2 (high), more” value was 1.5 fold; the “specific binding by HepG2 (low) cells relative to HepG2 (high) cells, less” value came out at 7.5 fold; the “specific binding by HepG2 (low) cells relative to HuH7 cells, less” value stood at 10 fold. Besides, in series [2] (HepG2 (high) cells, Scatchard analysis), the Kd (in general, the equilibrium constant for the complex coming apart) was 0.05 µM. The same molecule yielded a Kd in series [2] (HepG2 (low) cells) of roughly 0.0225 µM. In series [2] (HuH7 cells), this molecule showed an equilibrium dissociation constant (Kd) of roughly 0.07 µM.
Consider CFLEAIPMSIPPEVKFNKPFVFLIIHRD [C1315], for which the “Average % Fluorescent Cells” value in series [3] (HepG2(high)) is given as 20.4 ± 11.2%; in series [3] (HepG2(low)), 1.8 ± 1.4%; in series [3] (HuH7) it was 14.3 ± 4.0%. Besides, the “effect of excess free peptide on cell viability” value in series [4] is “no effect on cell viability”.
